Measurements as given in patent US20070098782A1, “Ramipril Formulation” (Selamine Limited, priority 2005, published 2007).
Blank lines part the entries; values can stand above or below the compound they belong to.

Legend:
[1] = molecular target: angiotensin converting enzyme (ACE) (Homo sapiens, UniProt P12821); details: cited from earlier work
[2] = 1 mg/ml ramipril solution in buffer, principal impurity after 12 hours at 50° C.; assay type: physicochemical
Description: An experiment was carried out in which 50 mg of ramipril was dispersed in 50 ml water and known concentrations of buffer were added. The solutions were placed in a stoppered bottle and stored for 12 hours at 50° C.

[3] = buffer Sodium carbonate 0.24 mg/ml
[4] = buffer Sodium carbonate 0.74 mg/ml
[5] = buffer Sodium carbonate 1.00 mg/ml
[6] = buffer Sodium citrate 0.72 mg/ml
[7] = buffer Sodium citrate 1.00 mg/ml
[8] = buffer Sodium citrate 1.90 mg/ml

Chain of angiotensin converting enzyme (ACE) (P12821 30-1306, species assumed): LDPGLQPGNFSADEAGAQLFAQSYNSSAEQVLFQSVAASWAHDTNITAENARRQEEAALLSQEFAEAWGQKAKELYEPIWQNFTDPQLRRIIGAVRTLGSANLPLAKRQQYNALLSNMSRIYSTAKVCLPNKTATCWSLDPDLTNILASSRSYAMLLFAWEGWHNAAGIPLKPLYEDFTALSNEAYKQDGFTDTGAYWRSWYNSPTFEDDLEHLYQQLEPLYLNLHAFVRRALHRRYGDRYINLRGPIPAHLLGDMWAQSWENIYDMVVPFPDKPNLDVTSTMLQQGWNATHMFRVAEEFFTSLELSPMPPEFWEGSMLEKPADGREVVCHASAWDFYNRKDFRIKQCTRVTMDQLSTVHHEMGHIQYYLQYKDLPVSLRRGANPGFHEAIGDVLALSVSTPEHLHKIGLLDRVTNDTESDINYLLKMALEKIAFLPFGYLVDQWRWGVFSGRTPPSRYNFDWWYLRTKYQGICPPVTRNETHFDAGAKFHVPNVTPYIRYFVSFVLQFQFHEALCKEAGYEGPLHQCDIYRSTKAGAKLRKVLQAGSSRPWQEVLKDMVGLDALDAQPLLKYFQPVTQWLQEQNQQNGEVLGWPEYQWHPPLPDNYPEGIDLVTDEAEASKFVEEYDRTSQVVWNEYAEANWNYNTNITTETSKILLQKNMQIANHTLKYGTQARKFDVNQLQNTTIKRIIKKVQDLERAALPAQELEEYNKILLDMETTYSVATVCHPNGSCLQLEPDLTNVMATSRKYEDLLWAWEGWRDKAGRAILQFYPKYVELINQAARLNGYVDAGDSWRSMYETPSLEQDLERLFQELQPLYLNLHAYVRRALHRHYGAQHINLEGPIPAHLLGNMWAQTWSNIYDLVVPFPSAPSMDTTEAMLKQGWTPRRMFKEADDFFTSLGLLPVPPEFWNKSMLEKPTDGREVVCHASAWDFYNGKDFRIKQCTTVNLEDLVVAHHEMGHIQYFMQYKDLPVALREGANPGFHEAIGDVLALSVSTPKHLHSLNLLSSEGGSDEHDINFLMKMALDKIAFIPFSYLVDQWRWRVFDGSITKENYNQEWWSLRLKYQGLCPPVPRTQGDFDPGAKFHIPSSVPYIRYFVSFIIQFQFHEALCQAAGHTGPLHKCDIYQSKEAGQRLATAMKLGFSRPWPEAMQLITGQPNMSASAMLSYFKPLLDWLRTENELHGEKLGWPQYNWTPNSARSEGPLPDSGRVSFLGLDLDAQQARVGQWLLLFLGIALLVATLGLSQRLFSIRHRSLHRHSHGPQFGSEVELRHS

Compound: C[C@H](N[C@@H](CCc1ccccc1)C(=O)O)C(=O)N1[C@H](C(=O)O)C[C@@H]2CCC[C@@H]21 [ramiprilat]
potency as an ACE inhibitor relative to the parent compound ramipril ([1]; compared with ramipril): up to 6 times

Impurity D ([2]; buffer L arginine 1.44 mg/ml): 0.16%
Impurity E ([2]; buffer L arginine 1.44 mg/ml): 13.7%
Impurity D [2, 3]: 0.22%
Impurity E [2, 3]: 9.9%
Impurity D [2, 4]: 0.19%
Impurity E [2, 4]: 11.3%
Impurity D [2, 5]: 0.17%
Impurity E [2, 5]: 15.2%
Impurity D [2, 6]: 0.22%
Impurity E [2, 6]: 8.2%
Impurity D [2, 7]: 0.23%
Impurity E [2, 7]: 8.4%
Impurity D [2, 8]: 0.20%
Impurity E [2, 8]: 7.5%
Compound: CCOC(=O)[C@H](CCc1ccccc1)N[C@@H](C)C(=O)N1[C@H](C(=O)O)C[C@@H]2CCC[C@@H]21 [Ramipril, (2S,3aS,6aS)-1[(S)-N-[(S)-1-carboxy-3-phenylpropyl]alanyl] octahydrocyclopenta[b]pyrrole-2-carboxylic acid, 1-ethyl ester]

Compound: ramipril diketopiperazine
activity as an ACE inhibitor [1]: not active
